Measured values taken from article PMC9028714 (Journal of Personalized Medicine, 2022).

Tests used:
[1] = Apixaban and rivaroxaban capillary blood concentrations (DBS, LC-MS/MS) in hospitalized patients; assay type: in vivo, human; conditions: concentrations normalized by the dosing regimen
Experimental: Comedications were systematically screened to record patients taking CYP3A4/5 and/or P-gp inhibitors and/or inducers using the Lexicomp drug interaction analysis tool and the Geneva Table of CYP substrates, inhibitors, and inducers. Adequacy of dosage was assessed according to the SmPC criteria (indication, age, CrCl, and weight).
The DBS concentrations were determined using a validated LC-MS/MS method.
After agitation during 10 min, 10 μL of the supernatant was injected into the LC-MS/MS system. Separation was performed with a Kinetex® C18 column (50 × 2.1 mm, 2.6 µm) from Phenomenex (Brechbühler, Schlieren, Switzerland) under gradient conditions. The mobile phase was composed of formic acid 0.1% in water and in acetonitrile. The total run time was 7 min. Detection of analytes was obtained in positive mode using multiple reaction monitoring (MRM). Instrument parameters were as follows: curtain gas = 40 psi, collision gas = high, IonSpray voltage = […], temperature = 550 °C, ion source gas 1 = 60 psi, ion source gas 2 = 60 psi.

[2] = Multivariable linear regression: genotype of CYP3A and P-gp vs AUC0–6h or C2h of apixaban and rivaroxaban; assay type: in vivo, human; conditions: for observed variability of AUC0–6h explained by the model: Table 4; for C2h, β (CI95%): Age 65–74 years / C2h, β (CI95%): Age 75–84 years / C2h, β (CI95%): Age >85 years: reference category <65 years; for C2h, β (CI95%): Gender, Female: reference category Male; for C2h, β (CI95%): Genotype ABCB1 1236C>T, Heterozygous for mutation / C2h, β (CI95%): Genotype ABCB1 1236C>T, Homozygous for mutation / C2h, β (CI95%): Genotype ABCB1 2677G>T, Heterozygous for mutation / C2h, β (CI95%): Genotype ABCB1 2677G>T, Homozygous for mutation / C2h, β (CI95%): Genotype ABCB1 3435C>T, Heterozygous for mutation / C2h, β (CI95%): Genotype ABCB1 3435C>T, Homozygous for mutation: reference category No mutation
Experimental: Genotyping of selected CYP3A4/5 and ABCB1 polymorphisms was carried out on QuantStudio^TM 12K Flex Real-Time (RT) PCR System with TaqMan® OpenArray^TM genotyping assays and TaqMan® MGB Probe Validated Single Nucleotide Polymorphism (SNP) Genotyping Assays (Applied Biosystems, Thermo Fisher Scientific, Waltham, MA, USA), respectively. These methods were previously described in detail in the literature. […] All SNPs of CYP3A4/5 integrated in the TaqMan® OpenArray^TM PGx Express Panel (Thermo Fisher Scientific, Waltham, MA, USA) were considered and are listed in Supplementary Table S1. Finally, raw genotyping data were processed with the TaqMan® Genotyper software (Thermo Fisher Scientific, Waltham, MA, USA) according to the manufacturer’s protocol.
AlleleTyper™ Software and translational tables (Thermo Fisher Scientific and PharmGKB, Stanford, CA, USA) were used to translate genetic pattern information from genotyping (SNPs) to pharmacogenomic gene-level star (*) nomenclature. Allele and genotype frequencies were determined, and Hardy–Weinberg equilibrium (HWE) was tested. […] The CYP3A activity predicted from the genotype combines the effects of CYP3A4 and CYP3A5 SNPs on enzyme activities, as listed in the PharmVar and PharmGKB databases. Patients were classified into poor metabolizer (PM), intermediate metabolizer (IM), normal metabolizer (NM), and ultra-rapid metabolizer (UM) according to the classification described by Andreu et al..
Missing data were excluded from the analysis.

CYP3A = tested on: CYP3A; set-up: method as in PMID 32157630; conditions: cited from earlier work
CYP2J2 and CYP1A2 = tested on: CYP2J2 and CYP1A2; set-up: method as in PMID 32157630; conditions: cited from earlier work
[3] = set-up: method as in PMID 33808739, PMID 30223963; conditions: cited from earlier work
[4] = Multivariable linear regression: phenotypic activity of CYP3A and P-gp vs AUC0–6h or C2h of apixaban and rivaroxaban; conditions: for observed variability of AUC0–6h predicted by the model: Table 3; for C2h, β (CI95%): Age 65–74 years / C2h, β (CI95%): Age 75–84 years / C2h, β (CI95%): Age >85 years: reference category <65 years; for C2h, β (CI95%): Gender, Female: reference category Male;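 as to all read-outs here: outcome C2h is the drug concentration 2 h post-dose, with regression coefficient errors from a sandwich estimator after a Breusch–Pagan heteroscedasticity check and missing data excluded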
Experimental: Dependent variables (outcomes) for both drugs were defined as being the values of AUC0–6h and concentration 2 h after drug administration (C2h). […] The Breusch–Pagan test was used to detect a potential heteroscedasticity issue, and consistent standard errors of the regression coefficients were assessed with a sandwich estimator. […] In addition, association between dependent variables and predicted activity of CYP3A and P-gp from genotype were also adjusted for a pre-specified set of potential confounding factors (gender, CrCl, BMI, age, dose). Spearman’s correlation was used to assess the concordance between genotype and phenotype of CYP3A and P-gp. Missing data were excluded from the analysis.

CYP2J2 = tested on: CYP2J2; set-up: method as in PMID 32157630; conditions: cited from earlier work
[5] = genotype model, Table S4, reference category 2.5 mg bid
[6] = genotype model, Table S4, reference category IM
[7] = phenotype model, Table S3, reference category 2.5 mg bid
[8] = genotype model, Table S4, reference category 10 mg od
[9] = phenotype model, Table S3, reference category 10 mg od

Compound	inter-individual CV of blood concentrations ([1]; administered bid)	observed variability of AUC0–6h explained by the model [2]	C2h, β (CI95%): ALAT, per unit ([2]; genotype model, Table S4)	C2h, β (CI95%): CrCl, per unit ([2]; genotype model, Table S4)	C2h, β (CI95%): Intercept ([2]; genotype model, Table S4)	C2h, β (CI95%): Age 65–74 years ([2]; genotype model, Table S4)	C2h, β (CI95%): Age 75–84 years ([2]; genotype model, Table S4)	C2h, β (CI95%): Age >85 years ([2]; genotype model, Table S4)	C2h, β (CI95%): Predicted phenotype from genotype CYP3A, PM [2, 6]	C2h, β (CI95%): Gender, Female ([2]; genotype model, Table S4)	C2h, β (CI95%): Genotype ABCB1 1236C>T, Heterozygous for mutation ([2]; genotype model, Table S4)	C2h, β (CI95%): Genotype ABCB1 1236C>T, Homozygous for mutation ([2]; genotype model, Table S4)	C2h, β (CI95%): Genotype ABCB1 2677G>T, Heterozygous for mutation ([2]; genotype model, Table S4)	C2h, β (CI95%): Genotype ABCB1 2677G>T, Homozygous for mutation ([2]; genotype model, Table S4)	C2h, β (CI95%): Genotype ABCB1 3435C>T, Heterozygous for mutation ([2]; genotype model, Table S4)	C2h, β (CI95%): Genotype ABCB1 3435C>T, Homozygous for mutation ([2]; genotype model, Table S4)	share of metabolism CYP3A is responsible for (CYP3A)	excreted by the kidney [3]	observed variability of AUC0–6h predicted by the model ([4]; phenotype model)	C2h, β (CI95%): ALAT, per unit ([4]; phenotype model, Table S3)	other results
COc1ccc(-n2nc(C(N)=O)c3c2C(=O)N(c2ccc(N4CCCCC4=O)cc2)CC3)cc1 [Apixaban]	47.7%	approximately 40%	0.07 (−0.17 to 0.32)	−0.48 (−0.75 to −0.21)	80.68 (42.43 to 118.93)	5.10 (−15.52 to 25.71)	9.29 (−10.54 to 29.12)	14.31 (−10.69 to 39.31)	−18.61 (−36.00 to −1.21)	5.44 (−5.98 to 16.87)	−1.26 (−23.09 to 20.57)	−9.35 (−36.76 to 18.06)	8.08 (−14.86 to 31.01)	9.94 (−17.81 to 37.69)	−7.52 (−24.64 to 9.60)	−2.70 (−18.04 to 12.65)	15%	25–30%	47%	0.06 (−0.13 to 0.25)	C2h, β (CI95%): Dose 5 mg bid [2, 5]: 51.17 (37.82 to 64.51); C2h, β (CI95%): Dose 10 mg bid [2, 5]: 113.17 (81.73 to 145.52); contribution of CYP2J2 and CYP1A2 together to metabolism (CYP2J2 and CYP1A2): 6%; decrease in CrCl with an effect comparable to P-gp phenoconversion NM to PM ([4]; according to the AUC0–6h model): 37.6 mL/min/1.73 m^2; C2h, β (CI95%): CrCl, per unit ([4]; phenotype model, Table S3): −0.40 (−0.67 to −0.13); C2h, β (CI95%): Intercept ([4]; phenotype model, Table S3): −0.46 (−51.98 to 51.05); C2h, β (CI95%): MRmidazolam, per log10 ([4]; phenotype model, Table S3): 6.07 (−8.08 to 20.22); C2h, β (CI95%): Weight, per kg ([4]; phenotype model, Table S3): −0.02 (−0.37 to 0.33); C2h, β (CI95%): Dose 5 mg bid [4, 7]: 51.97 (41.16 to 62.78); C2h, β (CI95%): Dose 10 mg bid [4, 7]: 116.28 (80.44 to 152.12); C2h, β (CI95%): Age 65–74 years ([4]; phenotype model, Table S3): 8.61 (−10.00 to 27.23); C2h, β (CI95%): Age 75–84 years ([4]; phenotype model, Table S3): 13.69 (−5.59 to 32.97); C2h, β (CI95%): Age >85 years ([4]; phenotype model, Table S3): 17.73 (−3.37 to 38.82); C2h, β (CI95%): Gender, Female ([4]; phenotype model, Table S3): 4.07 (−5.94 to 14.08)
O=C(NC[C@H]1CN(c2ccc(N3CCOCC3=O)cc2)C(=O)O1)c1ccc(Cl)s1 [Rivaroxaban]	41.5%	~18%	0.08 (−0.06 to 0.22)	−0.14 (−0.61 to 0.32)	−10.99 (−88.50 to 66.51)	24.56 (8.41 to 40.71)	25.66 (−1.56 to 52.88)	19.86 (−9.35 to 49.08)	24.72 (−8.3 to 57.73)	2.56 (−12.47 to 17.59)	−16.43 (−46.63 to 13.77)	−1.63 (−39.30 to 36.03)	23.36 (−8.85 to 55.56)	16.54 (−19.70 to 52.77)	−8.53 (−32.11 to 15.04)	−12.17 (−32.48 to 8.14)	18%	66%	27%	0.05 (−0.14 to 0.23)	inter-individual CV of blood concentrations ([1]; administered od): 51.8%; C2h, β (CI95%): Weight, per kg ([2]; genotype model, Table S4): 0.46 (0.04 to 0.88); C2h, β (CI95%): Dose 15 mg bid [2, 8]: 60.99 (29.95 to 92.04); C2h, β (CI95%): Dose 15 mg od [2, 8]: 29.53 (−2.56 to 61.63); C2h, β (CI95%): Dose 20 mg od [2, 8]: 57.40 (22.52 to 92.28); C2h, β (CI95%): Predicted phenotype from genotype CYP3A, NM [2, 6]: 20.74 (1.20 to 40.28); contribution of CYP2J2 to total clearance (CYP2J2): 14%; C2h, β (CI95%): CrCl, per unit ([4]; phenotype model, Table S3): −0.017(−0.49 to 0.34); C2h, β (CI95%): Intercept ([4]; phenotype model, Table S3): −77.74 (−161.1 to 5.63); C2h, β (CI95%): MRmidazolam, per log10 ([4]; phenotype model, Table S3): −8.35 (−30.17 to 13.47); C2h, β (CI95%): Weight, per kg ([4]; phenotype model, Table S3): 0.23 (−0.18 to 0.63); C2h, β (CI95%): Dose 15 mg bid [4, 9]: 41.5 (0.24 to 82.75); C2h, β (CI95%): Dose 15 mg od [4, 9]: 18.95 (−21.77 to 59.66); C2h, β (CI95%): Dose 20 mg od [4, 9]: 39.98 (−4.47 to 84.44); C2h, β (CI95%): Age 65–74 years ([4]; phenotype model, Table S3): 15.15 (−0.06 to 30.37); C2h, β (CI95%): Age 75–84 years ([4]; phenotype model, Table S3): 10.55 (−12.65 to 33.75); C2h, β (CI95%): Age >85 years ([4]; phenotype model, Table S3): 7.97 (−15.72 to 31.67); C2h, β (CI95%): Gender, Female ([4]; phenotype model, Table S3): 1.91 (−13.03 to 16.84)
